The source of these data is patent publication US7807396B2, “Insulin degrading enzyme assays for treatment of alzheimer's disease” (University of Kentucky Research Foundation, priority 2000, dated 2010).

The target of data set [1] is T1, Aβ1-40 (Homo sapiens, UniProt P05067). Put plainly: Rate of cleavage of Aβ1-40 by insulysin. Also noted: purchased Bachem (Torrance, Calif.). To be noted: 25 μM Aβ1-40. In kind it is biochemical. On the procedure:
Purified insulysin was incubated with 25 μM Aβ1-40 in 40 mM potassium phosphate buffer, pH 7.2, at 37° C. for 1 hour. The reaction products were loaded onto a C4 reverse phase HPLC column and products resolved using a linear gradient of 5 to 75% acetonitrile over 65 minutes. Products were detected by absorbance at 214 nm using a Waters 484 detector and individual product peaks were collected manually. Product analysis was also conducted on an intact reaction mixture in which products were not resolved by HPLC. Products were identified by matrix assisted laser desorption ionization time of flight mass spectrometry (MALDI-TOF-MS). The reaction of insulysin with Aβ1-42 was conducted in a similar manner with products identified by MALDI-TOF-MS directly from reaction mixtures.
Product peaks corresponding to cleavage at the His^13-His^14, His^14-Gln^15, Phe^19-Phe^20 and Phe^20-Ala^21 positions were observed.

A further data set has as its target T2, pre-aggregated Aβ1-40 (Homo sapiens, UniProt P05067).
T2 construct: purchased Amersham (125I-Aβ); QCB/BioSource (synthaloid plates)
Put plainly: Degradation of pre-aggregated 125I-Aβ1-40 deposited onto synthetic amyloid. In kind it is biochemical. To be noted: 24 hr incubation with 5 μg of insulysin. The text has this:
During the progression of Alzheimer's disease monomeric Aβ peptides are deposited onto senile plaques. To test whether insulysin is able to prevent the deposition of the Aβ1-40 peptide, a model system was used in which the deposition of radiolabeled Aβ1-40 onto a synthetic amyloid plaque (synthaloid) is followed (Esler et al. (1999) Methods Enzymol 309:350-74). […] We also conducted an experiment in which ^125I-Aβ1-40 was first deposited onto the synthetic amyloid and then treated with insulysin to see if the enzyme could degrade pre-aggregated Aβ1-40.

The next data set has as its target T3, β-endorphin (Homo sapiens, UniProt P01189).
T3 construct: Human β-endorphin1-31; purchased National Institute on Drug Abuse drug supply system
T3 sequence (P01189 237-267): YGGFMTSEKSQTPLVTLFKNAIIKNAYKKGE
Put plainly: Insulysin activity determination, disappearance of β-endorphin by HPLC. In kind it is biochemical. The following applies: 30 μM β-endorphin, 37° C. How it is done:
Materials. […] Solutions were prepared by dissolving the peptide in dimethylsulfoxide (DMSO) to give a stock concentration of 200 μM. The peptide stock was lyophilized and stored at −80° C. until use. The aggregation state of Aβ peptide stock solutions was checked by electron microscopy (Ray et al. (2000) Brain Res 853:344-351) and found to be predominantly, if not exclusively, monomeric. For the in vitro reactions with insulysin, a final concentration of 25 μM Aβ1-40 was obtained after bringing the lyophilized peptide into solution with double distilled water. […] Human β-endorphin1-31, obtained from the National Institute on Drug Abuse drug supply system, was dissolved in water to give a stock solution of 300 μM. Trifluoroacetic acid (Sigma Biochemicals, St. Louis, Mo.) was diluted into water to produce a 5% working solution.
Insulysin activity was assayed by measuring the disappearance of β-endorphin by isocratic reverse phase HPLC (Safavi et al. (1996) Biochemistry 1996 35:14318-14325). A 100 μl reaction mixture containing 40 mM potassium phosphate buffer, pH 7.2, 30 μM β-endorphin, and enzyme was incubated for 15 minutes at 37° C. […] The β-endorphin peak was detected by absorbance at 214 nm using a Waters 484 detector. The reaction was quantitated by measuring the decrease in the β-endorphin peak area.

For data set [2], the target named is T1, Aβ1-40. Put plainly: Aβ1-40 deposition assay onto synthetic amyloid (synthaloid). In kind it is biochemical. Also noted: purchased Amersham (125I-Aβ); QCB/BioSource (synthaloid plates). How it is done: A protocol was used where amyloid beta 1-40 (Aβ1-40) is initially deposited onto a 96 well microtiter plate. Radioactive (^125I labeled) Aβ1-40 is then added to the wells of this plate where it further adds to the Aβ1-40 deposited. This mimics the deposition of Aβ1-40 seen in the brains of Alzheimer patients.
96 well plates were pre-coated with Aβ1-40. In the control, 100 pM of ^125I-Aβ1-40 was deposited onto the pre-deposited Aβ1-40 plaque for three hours (lane 1). insulysin was added at concentrations of 500 ng, 50 ng and 5 ng to the wells along with ^125I-Aβ1-40 for three hours (lanes 2 to 4).
Beta amyloid deposition assays were conducted as described by Esler et. al. (Esler et al. (1997) Nat Biotech 15:268-263). Briefly, 96 well microtiter plates pre-coated with aggregated amyloid β1-40 (QCB/Biosource, Hopkinton, Mass.) were additionally coated with 200 μl of a 0.1% bovine serum albumin solution in 50 mM Tris-HCl, pH 7.5 for 20 minutes to prevent non-specific binding. For measuring Aβ1-40 deposition in the presence or absence of insulysin, a 150 μl solution of 0.1 nM 125I labeled Aβ1-40 in 50 mM Tris-HCl, pH 7.5 was added to the pre-coated well and incubated for four hours. When added, insulysin (0.5 to 500 ng) was placed directly in the well at zero time. The reaction was stopped by washing off excess undeposited radiolabeled Aβ1-40 with 50 mM Tris-HCl, pH 7.5. The radiolabel deposited onto the washed well was counted in a gamma counter. In a variation of this protocol, insulysin was preincubated with ^125 I-Aβ1-40 for 60 minutes and then added to the deposition assay.
During the progression of Alzheimer's disease monomeric Aβ peptides are deposited onto senile plaques. To test whether insulysin is able to prevent the deposition of the Aβ1-40 peptide, a model system was used in which the deposition of radiolabeled Aβ1-40 onto a synthetic amyloid plaque (synthaloid) is followed (Esler et al. (1999) Methods Enzymol 309:350-74). […]

Data set [3] has as its system primary rat cortical neurons. Put plainly: Neuroprotection / neurotoxicity assay in primary rat cortical neurons. In kind it is cell-based.
Procedure: Neurotoxicity assays were performed as described by Estus et. al. (Estus et al. (1997) J Neurosci 17:7736-7745) using embryonic day 18 rat fetuses to establish primary rat cortical neuron cultures. Rat brain cortical cells were initially cultured in AM0 media for 3-5 hrs in 16 well chamber slides (Nalge Nunc International, Rochester, N.Y.) pre-coated with polyethyleneimine at a density of ˜1×10^5 cells per well. The culture was enriched in neurons by replacement of the AM0 media with Dulbecco's modified Eagle's medium (DMEM, Life Technologies, Rockville, Md.) containing 100 units/ml penicillin, 100 μg/ml streptomycin and 2% B27 serum supplement (Life Technologies, Rockville, Md.).
Cells were treated with Aβ peptides and then fixed with 4% paraformaldehyde for 15 min. at room temperature. After washing the cells with PBS they were then stained with Hoechst 33258 at 1 μg/ml for 10 minutes. Neurons were then visualized by fluorescence microscopy. Those cells with uniformly dispersed chromatin were scored as survivors, while those cells containing condensed chromatin were scored as non-survivors. Readings were typically taken in triplicate with a minimum of 250 neurons scored from each well. Cells treated as described above were visualized using a Nikon microscope equipped with a Hoffman modulation contrast lens. Statistical analysis was performed on the samples using ANOVA.
To test this, rat cortical neurons were treated with Aβ peptides in the presence and absence of insulysin. Preliminary experiments were performed to obtain a suitable Aβ peptide concentration that would show a significant cytotoxic effect, as there are batch to batch variations in the ability of the Aβ peptides to mediate cytotoxic effects on cells in culture.
The cell based assay using primary rat cortical neurons was used to determine whether the insulysin cleavage products of the Aβ peptides were themselves neurotoxic. Recombinant insulysin at concentrations ranging from 0.5 to 5000 ng was added simultaneously with the Aβ peptides to the cortical cultures.
Data set [4] relates to rat brain hippocampal neurons. Put plainly: Hippocampal cell survival with Aβ1-42 with or without insulysin. In kind it is cell-based.
Source text: In order to determine whether the insulysin cleavage of Aβ peptides produces products which in themselves are neurotoxic, we conducted experiments using cultured primary hippocampal cells. […] An inactivated form of insulysin was used as a control.
Viable cells were detected by microscopy.
Neuronal survival was estimated as a function of time.
A further data set concerns the target T4, insulysin (Rattus norvegicus, UniProt P35559).
T4 construct: His6 (N); made in house; host or cells: Sf9 cells, baculovirus (pFASTBAC)
Put plainly: Insulysin activity with fluorogenic peptide Abz-[…]-EDDnp. In kind it is biochemical. To be noted: increasing concentrations of the peptide. How it is done: Referring to FIG. 16, the effect of increasing the concentration of the peptide dynorphin B-9 on insulysin activity is shown. Insulysin activity was measured with the fluorogenic peptide Abz-[…]-EDDnp (SEQ ID No: 14) in the presence of increasing concentrations of the peptide. This peptide contains the fluorescent […] (Abz) which is internally quenched by the 2,4-dinitrophenyl moiety.
Referring to FIG. 17, the effect of increasing the concentration of several different peptides on insulysin activity is summarized. Insulysin activity was measured with the fluorogenic peptide Abz-[…]-EDDnp (SEQ ID NO: 14) in the presence of increasing concentrations of the peptide.

A further data set concerns neprilysin. Put plainly: Neprilysin enzyme activity in rat brain tissue lysates, two-step assay. In kind it is in vivo. To be noted: 17β-estradiol pellets, 3 weeks.
Another data set concerns neprilysin mRNA. Put plainly: In situ hybridization of neprilysin mRNA in hippocampus of ovariectomized rats. In kind it is in vivo, rat. To be noted: 17β-estradiol pellets, 3 weeks. The text has this:
Using in situ hybridization we administered antisense probes for each of exons 1, 2, 3, and 4 (R1, R2, R3 and R4, respectively) to the brains of ovariectomized rats, some of which also received estrogen replacement therapy. Adult female Sprague-Dawley rats (approximate weight 300 grams) were used to study the effects of ovariectomy and estradiol supplementation on neprilysin expression levels and activity. In situ hybridization was used to measure neprilysin mRNA levels while a coupled chromogenic assay [Li, C. and Hersh, L. B. Neprilysin: Assay Methods, Purification and Characterization. Methods in Enzymology. 248, 253-263 (1995)] was used to measure neprilysin activity. […]
Images on autoradiographic film were analyzed with computer-aided densitometry (MCID-M1, Imaging Research, St. Catharines, Ontario, Canada). Optical density values of the [^14C] microscales were obtained and a correlating log-log linear least-squares fit was calculated (r^2>0.99). […] The optical density of each defined region was determined for the neuronal somal layer of area CA1 (stratum pyramidale), CA3 and dentate gyrus (stratum granulosum). Identification of brain regions was determined using the atlas of Paxinos and Watson (G. Paxinos, C. Watson, The rat Brain in Stereotaxic Coordinates, second Edition, Academic Press, Australia, 1986).

T4 sequence (P35559 whole entry): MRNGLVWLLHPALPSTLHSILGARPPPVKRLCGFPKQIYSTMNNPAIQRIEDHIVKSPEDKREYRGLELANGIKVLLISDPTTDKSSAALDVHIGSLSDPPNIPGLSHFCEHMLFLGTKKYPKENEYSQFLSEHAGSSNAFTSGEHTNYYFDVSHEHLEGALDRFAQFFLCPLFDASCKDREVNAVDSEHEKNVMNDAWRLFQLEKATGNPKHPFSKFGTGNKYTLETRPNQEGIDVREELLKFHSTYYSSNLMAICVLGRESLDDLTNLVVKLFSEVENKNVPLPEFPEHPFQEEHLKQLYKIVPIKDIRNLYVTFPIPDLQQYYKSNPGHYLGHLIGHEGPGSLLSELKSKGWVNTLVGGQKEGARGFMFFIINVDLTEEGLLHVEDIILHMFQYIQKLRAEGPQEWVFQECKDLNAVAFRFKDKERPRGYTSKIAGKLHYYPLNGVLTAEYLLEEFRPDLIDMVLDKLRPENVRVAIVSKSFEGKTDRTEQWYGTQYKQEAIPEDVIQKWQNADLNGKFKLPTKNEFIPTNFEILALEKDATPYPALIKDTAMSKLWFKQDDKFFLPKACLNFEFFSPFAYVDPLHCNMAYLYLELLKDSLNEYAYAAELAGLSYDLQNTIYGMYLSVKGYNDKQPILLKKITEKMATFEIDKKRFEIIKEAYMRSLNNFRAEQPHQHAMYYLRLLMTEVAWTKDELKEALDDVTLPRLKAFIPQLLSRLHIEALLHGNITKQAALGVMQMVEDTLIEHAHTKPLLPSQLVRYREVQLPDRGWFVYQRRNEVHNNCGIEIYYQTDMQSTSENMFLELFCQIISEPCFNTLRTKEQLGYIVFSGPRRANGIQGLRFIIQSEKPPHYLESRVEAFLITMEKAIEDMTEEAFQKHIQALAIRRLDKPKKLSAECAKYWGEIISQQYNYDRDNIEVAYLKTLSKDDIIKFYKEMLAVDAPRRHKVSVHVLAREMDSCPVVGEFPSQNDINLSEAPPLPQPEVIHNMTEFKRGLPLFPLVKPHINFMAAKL

As for “insulysin: His6-tagged recombinant rat insulysin (insulin degrading enzyme) expressed in Sf9 cells with baculovirus, purified”, in the data set with Aβ1-40 [1], the “rate of cleavage of Aβ1-40” value amounted to 1.2 μmols/min/mg enzyme. Also, in the data set with pre-aggregated Aβ1-40, the “release of radioactivity from deposited 125I-Aβ1-40” value is given as “no radioactivity was released”. Besides, the specific activity with β-endorphin was found to be 2.6 μmols/min/mg. Also, in the data set with Aβ1-40 [2] (50 ng of insulysin, 100 pM 125I-Aβ1-40, three hours), the “inhibition of deposition of 125I-Aβ1-40” value came to 50%. Further, the “amount able to prevent the deposition of radiolabeled Aβ1-40” value is given as 50 ng with Aβ1-40 [2] (insulysin added with 125I-Aβ1-40 (0.1 nM), 4 hr) and 50 ng with Aβ1-40 [2] (insulysin preincubated with 125I-Aβ1-40 for 60 minutes, 4 hr deposition). Besides, the “amount effective in sparing the neurotoxic effects of Aβ1-42” value in data set [3] (25 μM Aβ1-42, added simultaneously, 48 hrs) is 500 ng. For the same compound, the “amount effective in sparing the neurotoxic effects of Aβ1-40” value in data set [3] (30 μM Aβ1-40, added simultaneously, 48 hrs) was 50 ng. For the same compound, the “Aβ1-42 induced cell death of hippocampal cells” value in [4] (10 μM Aβ1-42 (initially monomeric), 400 ng insulin degrading enzyme, 24 hrs) is on record as “prevented Aβ1-42 induced cell death”. In addition, in [4] (insulysin added with 25 μM Aβ1-42, up to 12 hours), the neuronal survival entry was “survival was close to that seen in the control untreated cells”.

On to “beta endorphin: peptide, insulysin substrate, found to increase insulysin enzymatic activity”, for which the “effect on insulysin activity” value with insulysin was “increase insulysin enzymatic activity”.

Take dynorphin: the “effect on insulysin activity” value on insulysin is reported as “increase insulysin enzymatic activity”.

`C[C@]12CC[C@@H]3c4ccc(O)cc4CC[C@H]3[C@@H]1CC[C@@H]2O` [estrogen, 17β-estradiol]: in the data set on neprilysin, the “increase in neprilysin activity in the hippocampus over ovariectomized rats not treated with estrogen” value is listed as around 30%. Moreover, in the data set on neprilysin mRNA, the “expression of neprilysin mRNA in the hippocampus, higher than ovariectomized rats without estrogen” value is “about 300%”.

For “Aβ1-40: amyloid beta peptide 1-40 (SEQ ID NO: 12) obtained from Bachem [reference compound]”, the “loss of cortical neurons” value in [3] (30 μM Aβ1-40, 48 hrs) is “approximately 70%”.
